Measurements from PMC9975351 (Frontiers in Pharmacology, 2023).

What was measured:
[1] = target: T1, CYP3A4 (Homo sapiens, UniProt P08684); assay: Reaction phenotyping with recombinant CYP3A4; assay type: in vitro ADME; conditions: 1 µM, 50 pmol/mL recombinant CYP3A4, NADPH, 60 min, vs control
T1 construct: purchased Cypex (Dundee, UK); host or cells: bactosomes (bacterial membranes)
Protocol: (§1) Reactions were conducted in triplicate using 0.1 M PPB (pH 7.4) in eight-well tube strips in an 8 × 12 rack. […] The mixture was pre-incubated at 37°C with shaking at approximately 100 rpm for 5 min. Reactions were initiated by the addition of the NADPH-regenerating system and quenched with 200 µL ice-cold acetonitrile containing 50 nM CBZ. The samples were centrifuged at 1,000 × g and 4°C for 20 min, and the supernatants were subjected to LC-QTOF HRMS. […] The reaction was incubated, initiated, terminated, centrifuged then analyzed using the same method described above.
(§2) Reaction phenotyping is the identification of isoforms involved in drug metabolism and is important for the decipherment of drug biotransformation pathways and understanding of possible drug-drug interactions. M6, M7, and M8 were also detected in recombinant CYP incubations.

[2] = in vitro; assay type: in vitro ADME, human
Protocol: (§3) Metabolic stability of GRL 0617 and formation of M1 and M3 were evaluated using Silensome control, Silensome CYP2D6 and Silensome CYP3A4 incubated with 1 or 10 µM GRL 0617 in the presence of NADPH. Other metabolites were detected less than 1% of parent. […] CYP2D6 played an exclusive role in the formation of M2, but the reactions were not saturated in the concentration range used in this study and thus, the calculated Kcat, and Km were out of the experiment condition.
(§4) In addition, the contribution of specific isoform using Silensomes were evaluated, and calculated parameters were shown in Supplemental Figure S4 and Table 4. […] The contribution of specific CYP 3A4 or CYP2D6 was calculated to be 79.6% or 21.8%, respectively, using equation as equation below. Calculated % CYP isoform contribution = CLintcontrol−ClintINH ⁄ CLintcontrol ([Bohnert et al., 2016]).
(§5) incubated in Silensome control, Silensome CYP2D6, and Silensome CYP3A4 with NADPH for 0, 10,
(§6) 15, 30, 45, 60, or 120 min. The remaining percentages of GRL 0617 are expressed as mean ± SD (n=3).
(§7) (1 picture or pasted object on this page, not shown here)

[3] = test system: CYP2D6; assay: Metabolic stability in Silensome CYP2D6 (CYP2D6 contribution); assay type: in vitro ADME, human; conditions: human
Protocol: as §3, §4, §5, §6, §7

[4] = test system: Silensome CYP2D6; assay: as above; assay type: in vitro ADME, human; conditions: (CLint control − CLint INH)/CLint control
Protocol: as §3, §4, §5, §6, §7

[5] = test system: CYP3A4/3A5; assay: Metabolic stability in Silensome CYP3A4 (CYP3A4/3A5 contribution); assay type: in vitro ADME, human; conditions: human
Protocol: as §3, §4
(§8) CYP3A4/5 metabolizes various chemicals composed of large, lipophilic molecules with diverse structures, and >50% of all prescribed drugs undergo CYP3A4 metabolism ([Zanger and Schwab, 2013]). CYP3A4-related drug interaction studies are critical for the prediction of drug–drug interactions in the clinic ([Prueksaritanont et al., 2013]). […] Thus, Silensome 3A4 represented contribution of both CYP3A4 and CYP3A5, compared with control Silensome. CYP3A5 expression in the liver differs between Africans/African Americans and Caucasians. […] CYP2D6 is a highly polymorphic gene involved in drug metabolism ([Ingelman-Sundberg et al., 2007]). […] Indeed, CYP2D6 metabolized the naphthalene side ring through hydroxylation, which is not linked to M1–M3 dehydration.
as §5, §6, §7

[6] = test system: Silensome CYP3A4/3A5; assay: as above; assay type: in vitro ADME, human; conditions: (CLint control − CLint INH)/CLint control
Protocol: as §3, §4, §8, §5, §6, §7

[7] = target: CYP2E1 (Homo sapiens, UniProt P05181); assay: CYP cocktail inhibition assay in pooled HLMs, CYP2E1; conditions: substrate cocktail
Protocol: The drug–drug interaction potential was evaluated using a CYP cocktail assay that involved microsomal incubation and NADPH, as described elsewhere ([Lee et al., 2012]). […] The first reactions were initiated by NADPH addition, and each mixture was incubated in a shaking water bath at 37°C for 30 min. The final incubation was performed for 10 min with a total volume of 200 µL by adding substrates (tolbutamide (set B) as a CYP2C9 selective substrate, midazolam (set A) and testosterone (set B) as CYP3A4 selective substrates) and NADPH. The reaction was stopped and quenched by adding 200 µL of ice-cold acetonitrile containing 50 nM CBZ as internal standard, then centrifuged at 3,000 x g for 20 min. The supernatants were injected in LC-QTOF system. IC50 shift values were calculated as the ratio of the IC50 value obtained after pre-incubation without NADPH divided by the IC50 value obtained after 30 min incubation with NADPH.
The LC-QTOF system consisted of an Exion AD LC device (AB Sciex, Framingham, MA, United States) and a TripleTOF 6,600 + system (AB Sciex) equipped with an IonDrive Turbo V source operated in positive TOF information-dependent acquisition (IDA) MS2 scan mode. The TOF scan dwell time was 50 ms, and the 20 × IDA MS2 scan time was acquired with a 30-ms dwell time. […]

[8] = target: CYP2D6 (Homo sapiens, UniProt P10635); assay type: in vitro ADME; parameters: purchased Cypex (Dundee, UK); host or cells: bactosomes (bacterial membranes); conditions: 1 µM, 50 pmol/mL recombinant CYP2D6, NADPH, 60 min, vs control
Protocol: as §1, §2

T1 sequence (P08684 whole entry): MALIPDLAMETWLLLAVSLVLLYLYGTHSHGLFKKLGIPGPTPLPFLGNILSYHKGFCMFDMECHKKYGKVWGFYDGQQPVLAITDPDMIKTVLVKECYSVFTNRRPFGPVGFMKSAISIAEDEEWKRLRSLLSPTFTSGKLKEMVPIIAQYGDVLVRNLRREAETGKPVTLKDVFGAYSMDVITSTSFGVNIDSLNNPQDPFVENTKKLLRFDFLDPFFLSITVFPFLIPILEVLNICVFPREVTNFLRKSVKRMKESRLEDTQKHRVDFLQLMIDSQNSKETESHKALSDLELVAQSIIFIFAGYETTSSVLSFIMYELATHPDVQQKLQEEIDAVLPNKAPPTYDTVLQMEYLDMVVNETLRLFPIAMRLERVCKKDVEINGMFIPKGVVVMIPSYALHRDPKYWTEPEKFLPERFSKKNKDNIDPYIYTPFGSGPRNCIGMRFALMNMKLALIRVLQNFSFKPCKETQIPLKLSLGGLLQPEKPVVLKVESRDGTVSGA
Sequence of CYP2D6 (Homo sapiens, UniProt P10635) (P10635 whole entry): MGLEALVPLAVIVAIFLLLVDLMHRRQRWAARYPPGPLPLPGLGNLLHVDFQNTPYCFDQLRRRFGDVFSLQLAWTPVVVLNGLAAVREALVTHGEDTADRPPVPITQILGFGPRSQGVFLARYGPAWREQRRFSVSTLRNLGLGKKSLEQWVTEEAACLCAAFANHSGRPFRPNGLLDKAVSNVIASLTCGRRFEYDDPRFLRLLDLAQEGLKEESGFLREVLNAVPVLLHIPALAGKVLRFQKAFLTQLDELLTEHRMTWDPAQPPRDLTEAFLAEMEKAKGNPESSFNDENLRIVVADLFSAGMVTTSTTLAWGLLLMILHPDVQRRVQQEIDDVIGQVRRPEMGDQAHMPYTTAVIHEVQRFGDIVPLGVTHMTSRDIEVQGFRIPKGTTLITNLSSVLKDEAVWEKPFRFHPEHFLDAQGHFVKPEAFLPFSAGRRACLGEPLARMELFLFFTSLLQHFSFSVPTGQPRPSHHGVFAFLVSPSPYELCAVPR
Sequence of CYP2E1 (P05181 whole entry): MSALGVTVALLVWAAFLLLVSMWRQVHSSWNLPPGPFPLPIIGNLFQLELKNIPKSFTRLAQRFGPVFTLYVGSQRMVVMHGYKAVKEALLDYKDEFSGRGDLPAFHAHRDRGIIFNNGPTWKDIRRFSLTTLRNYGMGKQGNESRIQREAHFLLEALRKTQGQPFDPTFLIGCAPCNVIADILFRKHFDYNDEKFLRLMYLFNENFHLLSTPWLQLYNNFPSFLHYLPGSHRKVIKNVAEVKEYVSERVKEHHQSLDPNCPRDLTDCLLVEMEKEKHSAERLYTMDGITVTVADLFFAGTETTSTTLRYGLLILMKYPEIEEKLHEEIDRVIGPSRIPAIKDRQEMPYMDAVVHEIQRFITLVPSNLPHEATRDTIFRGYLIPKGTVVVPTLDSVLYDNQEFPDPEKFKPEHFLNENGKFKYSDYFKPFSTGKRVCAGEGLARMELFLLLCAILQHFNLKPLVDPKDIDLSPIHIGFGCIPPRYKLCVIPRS

In the case of `Cc1ccc(N)cc1C(=O)N[C@H](C)c1cccc2ccccc12` [GRL0617, 5-amino-2-methyl-N-[(1R)-1-(1-naphthalenyl)ethyl]benzamide], the GRL0617 level remaining [1] is reported as 9.48% ± 1.26%, the Contribution ([2]; Silensome control (reference)) is reported as 100% and the half-life at 1 µM ([2]; human, microsomes) is reported as 17.4 min. It also gave a microsomal CLint ([2]; human, microsomes, Silensome control with NADPH, read-out: Intrinsic clearance (in vitro) Clint) of 39.8 µL/min/mg, a half-life at 1 µM [3] of 22.3 min and a microsomal CLint at 1 µM ([3]; Silensome CYP2D6 with NADPH, read-out: Intrinsic clearance (in vitro) Clint) of 31.2 µL/min/mg. The “Contribution of CYP2D6 to metabolism” value [4] was 21.8%, the half-life at 1 µM [5] was 85.1 min and the microsomal CLint at 1 µM ([5]; Silensome CYP3A4/3A5 with NADPH, read-out: Intrinsic clearance (in vitro) Clint) was 8.14 µL/min/mg. For the same compound, the “Contribution of CYP3A4 (CYP3A4/3A5) to metabolism” value [6] was 79.6%, the “Concentrations at which CYP2E1 was inhibited” value [7] was at least 50 µM and the GRL0617 level remaining [8] was 71.46% ± 3.1%.
